Measured values: patent publication US4138496A, “SY-1 substance” (Kaken Chemical Co., Ltd., priority 1977, dated 1979)
Converted amounts (≈) assume the structure as drawn.

How the values were obtained:
Piricularia oryzae = test: microbe, parasite or virus in culture; assay type: cell-based; conditions: read-out: Minimum inhibitory concentration
Alternaria kikuchiana = test: Minimum inhibitory concentration; assay type: cell-based; conditions: PS: potato-sucrose agar, Na salt
Stability = conditions: Na salt
[1] = Toxicity (LD50), mice, orally; conditions: mouse, in vivo, po
Bacillus subtilis = test: Minimum inhibitory concentration; conditions: read-out: Minimum inhibitory concentration
Bacillus circulans = test: Minimum inhibitory concentration; conditions: Paenibacillus illinoisensis, read-out: Minimum inhibitory concentration
Bacillus megaterium = test: Minimum inhibitory concentration; conditions: Priestia megaterium, read-out: Minimum inhibitory concentration
Staphylococcus aureus = test: Minimum inhibitory concentration; conditions: read-out: Minimum inhibitory concentration
[2] = system: Staphylococcus epidermidis; test: Minimum inhibitory concentration; conditions: read-out: Minimum inhibitory concentration
Micrococcus flavus = test: Minimum inhibitory concentration; conditions: read-out: Minimum inhibitory concentration
Micrococcus luteus = test: Minimum inhibitory concentration; conditions: read-out: Minimum inhibitory concentration
Text: (§1) In the Table, N indicates Nutrient agar medium, GN Glycerine nutrient medium and PS Potato-sucrose agar medium.

Mycobacterium smegmatis = test: Minimum inhibitory concentration; conditions: Mycolicibacterium smegmatis, read-out: Minimum inhibitory concentration
Text: as §1
GN: 4% glycerol nutrient agar

Mycobacterium phlei = test: Minimum inhibitory concentration; conditions: Mycolicibacterium phlei, read-out: Minimum inhibitory concentration
Text: as §1
GN: 4% glycerol nutrient agar

Mycobacterium avium = test: Minimum inhibitory concentration; conditions: read-out: Minimum inhibitory concentration
Text: as §1
GN: 4% glycerol nutrient agar

Escherichia coli = test: Minimum inhibitory concentration; conditions: read-out: Minimum inhibitory concentration
Klebsiella pneumoniae = test: Minimum inhibitory concentration; conditions: read-out: Minimum inhibitory concentration
Proteus vulgaris = test: Minimum inhibitory concentration; conditions: read-out: Minimum inhibitory concentration
Psendomonas aeruginosa = test: Minimum inhibitory concentration; conditions: read-out: Minimum inhibitory concentration

## CCC(C(=O)O)C1CCC(C)C(C(C)C(O)C(C)C(=O)C(CC)C2OC3(C=CCC4(CCC(C)(C5CCC(O)(CC)C(C)O5)O4)O3)C(C)CC2C)O1 (stereo not shown) [SY-1 substance]
Piricularia oryzae
  MIC: > 100 µg/mL
Alternaria kikuchiana
  MIC: > 100 µg/mL
Stability; pH 7-9
  Stability: stable in pH 7-9
Stability; pH lower than 6
  Stability: unstable in pH lower than 6
Solubility; alcohols, acetates, chloroform, ether, carbon tetrachloride, benzene and n-hexane, Na salt
  Solubility in organic solvents: soluble
Solubility; general statement for isolation by solvent extraction
  Solubility in various organic solvents: soluble in various organic solvents
Solubility; water, Na salt
  Solubility in water: insoluble in water
[1]
  LD50: 51 mg/kg
Bacillus subtilis
  MIC: 100 µg/mL (≈ 136 µM)
Bacillus circulans
  MIC: 12.5 µg/mL (≈ 17 µM)
Bacillus megaterium
  MIC: 50 µg/mL (≈ 68 µM)
Staphylococcus aureus
  MIC: 100 µg/mL (≈ 136 µM)
[2]
  MIC: 50 µg/mL (≈ 68 µM)
Micrococcus flavus
  MIC: 100 µg/mL (≈ 136 µM)
Micrococcus luteus
  MIC: 100 µg/mL (≈ 136 µM)
Mycobacterium smegmatis
  MIC: > 100 µg/mL
Mycobacterium phlei
  MIC: > 100 µg/mL
Mycobacterium avium
  MIC: > 100 µg/mL
Escherichia coli
  MIC: > 100 µg/mL
Klebsiella pneumoniae
  MIC: > 100 µg/mL
Proteus vulgaris
  MIC: > 100 µg/mL
Psendomonas aeruginosa
  MIC: > 100 µg/mL
